In patent publication US6132697A, “Radiopharmaceutical compositions capable of localizing at sites of thrombus” (G. D. Searle & Co., priority 1997, dated 2000):

Tests used:
GPIIb/IIIa receptors = molecular target: T1, GPIIb/IIIa receptors (Homo sapiens, UniProt P05106+P08514); assay: ADP induced platelet aggregation inhibition assay in platelet rich plasma; type: cell-based; conditions: read-out: IC50 (half-maximal inhibition of platelet aggregation)
T1 construct: endogenous in cells; host or cells: platelets in platelet rich plasma from healthy volunteer donors
Experimental: This Example describes Platelet Aggregation Inhibition Assays of the compound of Example 2 to illustrate that the compound binds to GPIIb/IIIa receptors when radiolabelled.
Healthy aspirin free donors were randomly selected from a pool of volunteers. The harvesting of platelet rich plasma and subsequent ADP induced platelet aggregation assays were performed as described in Zucker, M. B. "Platelet Aggregation Measured by the Photometric Method", Methods in Enzymology 169 (1989):117-133. Standard venipuncture techniques using butterfly allowed the withdrawal of 45 mL of whole blood into a 60 mL syringe containing 5 mL 3.8% trisodium citrate. Following thorough mixing in the syringe, the anti-coagulated whole blood was transferred to a 50 mL conical polyethylene tube. The blood was centrifuged at room temperature for 12 minutes at 200xg to sediment non-platelet cells. Platelet poor plasma was obtained from a second centrifugation of the remaining blood at 2000xg for 15 minutes. Platelet counts are typically 300,000 to 500,000 per microliter. […] Aggregation was recorded for 3 minutes in a Payton dual channel aggregometer (Payton Scientific, Buffalo, N.Y.). […] The compounds were tested in duplicate and half-maximal inhibition (IC50) was calculated graphically from the dose response curve. […]

[1] = Biodistribution in rat model (radioactivity in organs, excretion); type: in vivo, Sprague-Dawley rats
Experimental: This study was designed to evaluate the biodistribution pattern of the compound of Example 2 to determine the clearance profile from blood, route of excretion and in vivo stability of the complex by HPLC analysis of urine samples, in a rat model.
The compound of Example 2 was injected ([…], 1.5-3.5 mCi/mL) into Sprague-Dawley rats. Groups of three animals were sacrificed at the time points indicated below to determine the amount of radioactivity remained in the organs. Results: (to be filled)
The compound of Example 7 was injected ([…], 1.5-3.5 mCi/mL) into Sprague-Dawley rats. Groups of three animals were sacrificed at the time points indicated below to determine the amount of radioactivity (%ID/g) remaining in the organs.
The compound of Example 12 was injected into Sprague-Dawley rats according to the procedure outlined in Example 5. The amount of radioactivity present in the major excretionary organs at different time points (1, 4 and 24 hours) are given below.
The compound of Example 19 was injected into Sprageue-Dawley rats according to the procedure outlined earlier. The amount of radioactivity present in the major excretionary organs at different time points (1, 4 and 24 hours) are given below.
The compound of Example 26 was injected ([…], 1.5-3.5 mCi/mL) into Sprague-Dawley rats. Groups of three animals were sacrificed at the time points indicated below to determine the amount of radioactivity remaining in the organs.

[2] = system: pulmonary emboli (PE) and/or deep vein thrombus (DVT); assay: Canine model for pulmonary embolism / deep vein thrombus (embolization coils); type: in vivo, dog; conditions: sacrifice at 3 hours
Experimental: These studies are designed to serve as a preliminary screen of various radiolabeled pharmaceuticals for the purpose of imaging pulmonary emboli (PE) and/or deep vein thrombus (DVT).
Procedure: The dog is first anesthetized with an intravenous injection of sodium pentobarbital (30 mg/kg). An IV catheter is placed into the jugular vein and advanced to the pulmonary artery. Visualization of the catheter placement is facilitated using fluoroscopy. Embolization coils of various sizes (3-8 mm) are next released via the catheter using the appropriate guide wire, and localization of the coils is followed by fluoroscopy. After a satisfactory number of coils (3-5) have been placed and visualized, the catheter is removed and the vein ligated. The formation of a deep vein thrombus (DVT) in the saphenous vein is facilitated by the placement of a 16 gauge needle into the vein followed by the passage of a 5 mm embolization coil through the needle directly into the vein.
IV injection (cephalic vein) of the radiolabeled test article occurs approximately 30-45 minutes post placement of the embolization coils. Approximate activity injected is 2.5-3.5mCi. Beginning at 30 minutes post injection and continuing for several hours at 30 minute intervals, the animal is scintigraphed in both the lateral and supine positions.
At the conclusion of the imaging portion of the study (3 hours) the animal is sacrificed, and selected tissues removed for scintillation counting. The coils are located, removed and quantitated for uptake of the radiotracer. From these values is determined the target:non-target ratios and blood clearance of the test article.
The compound of claim 19 was administered to a canine according to the general protocol described in Example 16.

T1 sequence (P08514 32-887 limits assumed): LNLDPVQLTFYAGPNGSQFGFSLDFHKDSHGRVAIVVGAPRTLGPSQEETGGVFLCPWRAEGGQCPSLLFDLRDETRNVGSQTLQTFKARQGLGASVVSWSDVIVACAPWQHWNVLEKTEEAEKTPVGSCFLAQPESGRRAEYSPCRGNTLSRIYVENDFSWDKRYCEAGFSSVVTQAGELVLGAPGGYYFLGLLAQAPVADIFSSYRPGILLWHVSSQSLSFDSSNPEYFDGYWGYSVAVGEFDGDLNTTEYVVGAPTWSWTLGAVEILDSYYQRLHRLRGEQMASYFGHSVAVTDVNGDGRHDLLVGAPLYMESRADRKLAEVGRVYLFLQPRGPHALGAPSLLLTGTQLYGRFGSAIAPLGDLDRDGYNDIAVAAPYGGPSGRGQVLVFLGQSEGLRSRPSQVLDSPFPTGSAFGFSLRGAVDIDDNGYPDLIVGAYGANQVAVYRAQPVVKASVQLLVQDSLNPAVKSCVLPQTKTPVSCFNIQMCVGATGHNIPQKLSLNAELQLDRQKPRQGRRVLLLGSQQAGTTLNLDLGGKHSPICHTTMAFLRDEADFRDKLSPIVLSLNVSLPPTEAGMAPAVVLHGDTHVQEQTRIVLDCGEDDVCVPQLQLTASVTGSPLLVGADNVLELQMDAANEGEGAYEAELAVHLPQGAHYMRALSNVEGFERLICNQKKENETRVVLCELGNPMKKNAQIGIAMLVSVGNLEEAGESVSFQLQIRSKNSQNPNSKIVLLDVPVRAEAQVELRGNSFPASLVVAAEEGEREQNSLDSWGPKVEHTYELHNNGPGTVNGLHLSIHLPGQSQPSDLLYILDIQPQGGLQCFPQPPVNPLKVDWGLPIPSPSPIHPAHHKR
T1 sequence (P08514 891-1039 partner limits assumed): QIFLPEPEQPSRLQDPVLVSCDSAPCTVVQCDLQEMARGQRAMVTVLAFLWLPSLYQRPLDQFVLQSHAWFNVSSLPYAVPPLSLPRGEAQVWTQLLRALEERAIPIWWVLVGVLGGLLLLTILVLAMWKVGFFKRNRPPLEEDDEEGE
T1 sequence (P05106 27-788): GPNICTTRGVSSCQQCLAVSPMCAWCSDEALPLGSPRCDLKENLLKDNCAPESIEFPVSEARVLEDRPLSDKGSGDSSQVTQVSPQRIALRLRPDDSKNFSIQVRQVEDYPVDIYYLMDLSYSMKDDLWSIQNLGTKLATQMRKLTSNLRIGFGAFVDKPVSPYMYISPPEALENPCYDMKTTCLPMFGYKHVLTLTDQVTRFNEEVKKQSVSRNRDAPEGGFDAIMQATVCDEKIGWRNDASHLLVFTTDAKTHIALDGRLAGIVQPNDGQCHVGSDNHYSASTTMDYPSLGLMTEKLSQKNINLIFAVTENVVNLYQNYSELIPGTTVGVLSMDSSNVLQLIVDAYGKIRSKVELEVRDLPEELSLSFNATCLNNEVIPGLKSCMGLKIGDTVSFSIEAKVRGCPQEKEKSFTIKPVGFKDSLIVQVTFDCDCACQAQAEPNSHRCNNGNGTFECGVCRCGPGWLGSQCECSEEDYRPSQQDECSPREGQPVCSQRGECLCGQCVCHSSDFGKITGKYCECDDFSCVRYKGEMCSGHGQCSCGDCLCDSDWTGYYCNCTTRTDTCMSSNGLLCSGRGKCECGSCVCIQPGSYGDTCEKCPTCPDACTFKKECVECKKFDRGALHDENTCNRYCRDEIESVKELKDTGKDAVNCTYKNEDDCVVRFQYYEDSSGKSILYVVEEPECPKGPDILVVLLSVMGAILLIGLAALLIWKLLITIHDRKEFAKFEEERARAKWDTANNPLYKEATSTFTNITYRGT

Row | SMILES | IC50 (GPIIb/IIIa receptors) | radioactivity in organ: Blood ([1]; 1 hour) | radioactivity in organ: Kidney ([1]; 1 hour) | radioactivity in organ: Liver ([1]; 1 hour) | radioactivity in organ: Sml. Int & Contents ([1]; 1 hour) | radioactivity in organ: Blood ([1]; 4 hours) | radioactivity in organ: Kidney ([1]; 4 hours) | radioactivity in organ: Liver ([1]; 4 hours) | radioactivity in organ: Sml. Int & Contents ([1]; 4 hours) | radioactivity in organ: Blood ([1]; 24 hours) | radioactivity in organ: Kidney ([1]; 24 hours) | radioactivity in organ: Liver ([1]; 24 hours) | radioactivity in organ: Sml. Int & Contents ([1]; 24 hours) | % ID excreted in the feces at 24 hr. [1] | % ID excreted in the urine at 24 hr. [1] | other results
1 | CN(C)CCNC(=O)C(CCC(=O)O)NC(=O)C(CCCCNC(=O)CCNC(=O)C(CC(=O)O)NC(=O)CCC(=O)Nc1ccc(C(=N)N)cc1)NC(=O)CSC1CCCCO1 [Example 18, ABAS-L-Asp-β-Ala-ε-L-Lys(α-S-THP-mercaptoacetyl)-Glu-dme] | 0.49 µM | – | – | – | – | – | – | – | – | – | – | – | – | – | – | –
2 | CN(C)CC[N]1C(=O)C(CCC(=O)O)[N]2C(=O)C(CCCCNC(=O)CCNC(=O)C(CC(=O)O)NC(=O)CCC(=O)Nc3ccc(C(=N)N)cc3)[N]3C(=O)C[S][99Tc-]132=[O] (centres unmarked) [Example 19] | – | 0.067 % ID/g | 0.864 % ID/g | 0.158 % ID/g | 0.645 % ID/g | 0.011 % ID/g | 0.520 % ID/g | 0.024 % ID/g | 0.015 % ID/g | 0.004 % ID/g | 0.241 % ID/g | 0.009 % ID/g | 0.002 % ID/g | 32.758 % ID | 41.217 % ID | % ID/g ([2]; Blood): 0.0018 % ID/g; % ID/g ([2]; Clot 1 (DVT)): 0.0828 % ID/g; Clot/blood ([2]; Clot 1 (DVT)): 43; % ID/g ([2]; Clot 2 (PE)): 0.0114 % ID/g; Clot/blood ([2]; Clot 2 (PE)): 6; % ID/g ([2]; Clot 3 (PE)): 0.125 % ID/g; Clot/blood ([2]; Clot 3 (PE)): 65; % ID/g ([2]; Clot 4 (PE)): 0.142 % ID/g; Clot/blood ([2]; Clot 4 (PE)): 74; % ID/g ([2]; Clot 5 (PE)): 0.1232 % ID/g; Clot/blood ([2]; Clot 5 (PE)): 64
3 | CN(C)CC[N]1C(=O)C(CCC(=O)O)[N]2C(=O)C(CCCC(=O)NCCCCC(NC(=O)C(CC(=O)O)NC(=O)CCC(=O)Nc3ccc(C(=N)N)cc3)C(=O)O)[N]3C(=O)C[S][99Tc-]132=[O] (centres unmarked) [Example 26] | – | 0.067 % ID/g | 0.628 % ID/g | 0.043 % ID/g | 0.206 % ID/g | 0.011 % ID/g | 0.536 % ID/g | 0.015 % ID/g | 0.031 % ID/g | 0.007 % ID/g | 0.227 % ID/g | 0.014 % ID/g | 0.009 % ID/g | 16.277 % ID | 54.708 % ID | –
4 | CN(C)CC[N]1C(=O)C(CCC(=O)O)[N]2C(=O)C(CCCC(=O)NCCCCC(NC(=O)C(CC(=O)O)NC(=O)CCC(=O)Nc3ccc(C(=N)N)cc3)C(=O)O)[N]3C(=O)C[S][TcH]132=[O] (centres unmarked) [Example 26] | 0.29 µM | – | – | – | – | – | – | – | – | – | – | – | – | – | – | –
